Experimental data: patent US10780101B2, “Amide derivatives of squalamine for the treatment of infections” (VIRBAC, priority 2016, dated 2020)
In brackets after ≈: the same amount, converted by molar mass. Marks after values point to notes of the source that are not given here.

Experiments:
[1] = system: S. aureus Human ATCC 25923; assay: MIC determination, S. aureus human ATCC 25923; format: cell-based; details: Staphylococcus aureus, ATCC25923; Gram-positive; Mueller-Hinton medium, 24 h at 37° C.
Summary of the method: (§1)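 Broth microdilution in Mueller-Hinton medium, inoculum at OD 0.01, compounds (5 mg/mL stock in DMSO/methanol 50/50) serially diluted twofold. Plates incubated 24 h at 37° C. under humid atmosphere, read at OD 620 nm for MIC; duplicates.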

[2] = system: S. aureus Animal (340); assay: MIC determination, S. aureus animal (340); format: cell-based; details: Staphylococcus aureus; Gram-positive; Mueller-Hinton medium, 24 h at 37° C.
Summary of the method: as §1

[3] = system: S. intermedius Animal (1051997); assay: MIC determination, S. intermedius animal (1051997); format: cell-based; details: Staphylococcus intermedius; Gram-positive; Mueller-Hinton medium, 24 h at 37° C.
Summary of the method: as §1

[4] = system: E. faecalis Human ATCC 29212; assay: MIC determination, E. faecalis human ATCC 29212; format: cell-based; details: Enterococcus faecalis, ATCC29212; Gram-positive; Mueller-Hinton medium, 24 h at 37° C.
Summary of the method: as §1

[5] = system: E. coli Animal (1956); assay: MIC determination, E. coli animal (1956); format: cell-based; details: Escherichia coli; Gram-negative; Mueller-Hinton medium, 24 h at 37° C.
Summary of the method: as §1

[6] = system: P. aeruginosa Human ATCC 27853; assay: MIC determination, P. aeruginosa human ATCC 27853; format: cell-based; details: Pseudomonas aeruginosa, ATCC27853; Gram-negative; Mueller-Hinton medium, 24 h at 37° C.
Summary of the method: as §1

[7] = system: P. aeruginosa Animal (1051575); assay: MIC determination, P. aeruginosa animal (1051575); format: cell-based; details: Pseudomonas aeruginosa; Gram-negative; Mueller-Hinton medium, 24 h at 37° C.
Summary of the method: as §1

[8] = system: P. aeruginosa (1051575); assay: Potentiation of doxycycline activity (combination MIC); format: cell-based, Pseudomonas aeruginosa; details: for MIC - P. aeruginosa (1051575): content of compound of formula (I) to restore the doxycycline activity (at 2 μg/mL): in presence of doxycycline 2 μg/mL, 24 hours at 37° C.; for synergism when administered with doxycycline: doxycycline at 2 μg/mL
[9] = system: P. aeruginosa (1051575); assay: Potentiation of ampicillin activity (combination MIC); format: cell-based, Pseudomonas aeruginosa; details: ampicillin 4 μg/mL; concentration of compound required to restore antibiotic activity
Method: (§2) This method requires the use of a 96-well plate: 100 μL of a liquid culture medium are placed in each well and then seeded with the microbial suspension prepared previously. The required volume to be seeded is calculated for an OD of 0.01, which corresponds to about 5×10^6 bacteria in each well. In this plate, the first line corresponds to a negative control (200 μL of sterile culture medium in each well), the second line corresponds to a positive control (100 μL of sterile culture medium+100 μL of the bacterial suspension), and the third line contains 192 μL of culture medium; 8 μL of compound of formula (I) to be tested are placed in each well. Thereafter, a cascade dilution is performed from this line. […] 92 μL of bacterial suspension are then added to lines 3 to 8. The results are read (the determination of the MIC (2 μg/mL of doxycycline) in the presence of X g/mL of compound of formula (I)) after 24 hours of incubation at 37° C. under a humid atmosphere. After 24 hours of incubation at 37° C., 40 μL of nitro tetrazolium iodide are added to each well to reveal the presence of live bacteria by staining the medium pink.
(§3) The procedure is identical to that indicated in Example 5 above. […]
(§4) The results are given in table V. They indicate the concentration of compound of formula (I) required to be able to restore the activity of the antibiotic under consideration.

[10] = system: P. aeruginosa (1051575); assay: Potentiation of erythromycin activity (combination MIC); format: cell-based, Pseudomonas aeruginosa; details: erythromycin 2 μg/mL; concentration of compound required to restore antibiotic activity
Method: This method requires the use of a 96-well plate: 100 μL of a liquid culture medium are placed in each well and then seeded with the microbial suspension prepared previously. The required volume to be seeded is calculated for an OD of 0.01, which corresponds to about 5×10^6 bacteria in each well. In this plate, the first line corresponds to a negative control (200 μL of sterile culture medium in each well), the second line corresponds to a positive control (100 μL of sterile culture medium+100 μL of the bacterial suspension), and the third line contains 192 μL of culture medium; 8 μL of compound of formula (I) to be tested are placed in each well. Thereafter, a cascade dilution is performed from this line. L of a doxycycline solution (1 mg dissolved in 20 mL) are then added to each well of lines 3 to 8 to obtain a final antibiotic concentration of 2 μg/mL. 92 μL of bacterial suspension are then added to lines 3 to 8. The results are read (the determination of the MIC (2 μg/mL of doxycycline) in the presence of X g/mL of compound of formula (I)) after 24 hours of incubation at 37° C. under a humid atmosphere. After 24 hours of incubation at 37° C., 40 μL of nitro tetrazolium iodide are added to each well to reveal the presence of live bacteria by staining the medium pink.
The procedure is identical to that indicated in Example 5 above. 8 μL of an antibiotic solution under consideration (1 mg dissolved in 20 mL) are added to obtain a final antibiotic concentration of 2 μg/mL instead of 8 μL of a doxycycline solution.
as §4

[11] = system: P. aeruginosa (1051575); assay: Potentiation of chloramphenicol activity (combination MIC); format: cell-based, Pseudomonas aeruginosa; details: concentration of compound required to restore antibiotic activity
Method: as §2, §3, §4

SMILES	MIC [1] [µg/mL]	MIC [2] [µg/mL]	MIC [3] [µg/mL]	MIC [4] [µg/mL]	MIC [5] [µg/mL]	MIC [6] [µg/mL]	MIC [7] [µg/mL]	MIC - P. aeruginosa (1051575): content of compound of formula (I) to restore the doxycycline activity (at 2 μg/mL) [8] [µg/mL]	MIC P. aeruginosa (1051575) compound + ampicillin [9] [µg/mL]	MIC P. aeruginosa (1051575) compound + erythromycin [10]	MIC P. aeruginosa (1051575) compound + chloramphenicol ([11]; chloramphenicol 2 μg/mL) [µg/mL]	MIC P. aeruginosa (1051575) compound + chloramphenicol ([11]; chloramphenicol 4 μg/mL) [µg/mL]	synergism when administered with doxycycline [8]
CC(C)NC(=O)CC[C@@H](C)[C@H]1CCC2C3C(C[C@H](O)[C@@]21C)[C@@]1(C)CC[C@H](NCCCNCCCN)CC1C[C@H]3O (stereo partly drawn) [(5), 3β-norspermidino-N-isopropylcholamide]	8 (≈ 14.2 µM)	16 (≈ 28.4 µM)	4 (≈ 7.11 µM)	16 (≈ 28.4 µM)	32 (≈ 56.9 µM)	64 (≈ 114 µM)	64 (≈ 114 µM)	1	64	32* μg/mL	4	2	
CC(C)NC(=O)CC[C@@H](C)[C@H]1CCC2C3C(CC[C@@]21C)[C@@]1(C)CC[C@H](NCCCNCCCNCCCN)CC1C[C@H]3O (stereo partly drawn) [(7), 3β-norspermino-N-isopropylchenodeoxycholamide]	4 (≈ 6.62 µM)	2 (≈ 3.31 µM)	1 (≈ 1.66 µM)	4 (≈ 6.62 µM)	8 (≈ 13.2 µM)	30 (≈ 49.7 µM)	15 (≈ 24.8 µM)	1	15	15 µg/mL		2	
CC(C)NC(=O)CC[C@@H](C)[C@H]1CCC2C3C(CC[C@@]21C)[C@@]1(C)CC[C@H](NCCCNCCCN)CC1C[C@H]3O (stereo partly drawn) [(8), 3β-norspermidino-N-isopropylchenodeoxycholamide]	6 (≈ 11 µM)	3 (≈ 5.49 µM)	1 (≈ 1.83 µM)	8 (≈ 14.6 µM)	14 (≈ 25.6 µM)	54 (≈ 98.7 µM)	27 (≈ 49.4 µM)	2	27	27 µg/mL		2	
CC(C)NC(=O)CC[C@@H](C)[C@H]1CCC2C3C(CC[C@@]21C)[C@@]1(C)CC[C@H](NCCCNCCCN)CC1C[C@@H]3O (stereo partly drawn) [(15), 3β-norspermidino-N-isopropylursodeoxycholamide]	28 (≈ 51.2 µM)	56 (≈ 102 µM)	7 (≈ 12.8 µM)	112 (≈ 205 µM)	112 (≈ 205 µM)	56 (≈ 102 µM)	112 (≈ 205 µM)	1	110	55 µg/mL	7	2	
CC(C)NC(=O)CC[C@@H](C)[C@H]1CCC2C3CCC4C[C@@H](NCCCN(C)CCCN)CC[C@]4(C)C3C[C@H](O)[C@@]21C (stereo partly shown) [(25)]	7 (≈ 12.5 µM)	14 (≈ 25 µM)	2 (≈ 3.57 µM)	14 (≈ 25 µM)	14 (≈ 25 µM)	28 (≈ 49.9 µM)	28 (≈ 49.9 µM)	2	56	28 µg/mL		2	noteworthy synergism
CC(C)NC(=O)CC[C@@H](C)[C@H]1CCC2C3C(CC[C@@]21C)[C@@]1(C)CC[C@H](NCCCN(C)CCCN)CC1C[C@H]3O (stereo partly drawn) [(27), 3β-(bis(3-aminopropyl)methylamine)-N-isopropylchenodeoxycholamide]	8 (≈ 14.3 µM)	8 (≈ 14.3 µM)	4 (≈ 7.13 µM)	16 (≈ 28.5 µM)	32 (≈ 57 µM)	32 (≈ 57 µM)	128 (≈ 228 µM)	2	64	28 µg/mL	4	1	
CC(C)NC(=O)CC[C@@H](C)[C@H]1CCC2C3CCC4C[C@@H](NCCCNCCCN)CC[C@]4(C)C3C[C@H](O)[C@@]21C (stereo partly drawn) [Compound (2), 3β-norspermidino-N-isopropyldeoxycholamide]	4 (≈ 7.31 µM)	2 (≈ 3.66 µM)	1 (≈ 1.83 µM)	14 (≈ 25.6 µM)	14 (≈ 25.6 µM)	28 (≈ 51.2 µM)	14 (≈ 25.6 µM)	0.9	28	3* μg/mL	0.9	0.9	noteworthy synergism
CC(C)NC(=O)CC[C@@H](C)[C@H]1CCC2C3C(CC[C@@]21C)[C@@]1(C)CC[C@H](NCCCNCCCCNCCCN)CC1C[C@@H]3O (stereo partly drawn) [Compound (35), 3β-spermino-N-isopropylursodeoxycholamide]	16 (≈ 25.9 µM)	16 (≈ 25.9 µM)	8 (≈ 12.9 µM)	64 (≈ 104 µM)	64 (≈ 104 µM)	32 (≈ 51.8 µM)	64 (≈ 104 µM)	2	64	32 µg/mL		2	
